Results taken from US10047105B2, “Gyrase inhibitors” (Merck Sharp & Dohme Corp., priority 2009, dated 2018).
In brackets after ≈: the same amount, converted by molar mass.

Key:
Assay type in all cases: cell-based
S. pneumoniae ATCC 51916 = assay: MIC, S. pneumoniae; settings: S. pneumoniae (Spn52); in µg/mL
S. aureus ATCC 13709 = assay: MIC, antibacterial potency, S. aureus; settings: S. aureus (SA); in µg/mL
E. coli 8 ATCC 25922 = assay: MIC, E. coli 8 (wt); settings: E. coli 8 (EC8)

| SMILES | MIC Spn52 (S. pneumoniae ATCC 51916) | MIC, SA (S. aureus ATCC 13709) | MIC EC8 (E. coli 8 ATCC 25922) |
| --- | --- | --- | --- |
| CCc1[nH]c2nc(Sc3ccc4c(N5CCC(N)CC5)nc(C)nc4c3)nc(N3CC4C(N)C4C3)c2c1Cl (stereo not drawn) [700,984] | 8 | 4 | 8 µg/mL (≈ 14.5 µM) |
| CCc1[nH]c2nc(Sc3cnc4nccnc4c3)nc(N3CCC4(CC4N)C3)c2c1Cl (stereo not drawn) [700,986] | 2 | 1 | 64 µg/mL (≈ 141 µM) |
| CCc1[nH]c2nc(Oc3ccc4nccnc4c3)nc(Oc3cncc(C#N)c3)c2c1Br [700,987] | <=0.5 | <=0.5 | > 64 µg/mL |
| CCc1[nH]c2nc(Oc3ccc4nccnc4c3)nc(Oc3cnc4c(c3)ncn4C)c2c1Br [700,988] | <=0.5 | <=0.5 | > 64 µg/mL |
| CCc1[nH]c2nc(Oc3ccc4nccnc4c3)nc(N3CC4C(C3)C4(N)C(N)=O)c2c1Cl (stereo not drawn) [700,989] | <=0.5 | <=0.5 | > 64 µg/mL |
| CCc1[nH]c2nc(Sc3ccc4cc5c([n+]([O-])c4c3)CCNC5)nc(N3CCc4nc(N)sc4C3)c2c1Cl [700,990] | 16 | 1 | > 64 µg/mL |
| CCc1[nH]c2nc(Sc3ccc4cccnc4c3)nc(N3CC[C@@H](N)C3)c2c1Cl [700,991] | 2 | 1 | 32 µg/mL (≈ 75.3 µM) |
| CCc1[nH]c2nc(Sc3ccc4cccnc4c3)nc(N3CC4C(N)C4C3)c2c1Cl (stereo not drawn) [700,992] | <=0.5 | <=0.5 | > 64 µg/mL |
| CCc1[nH]c2nc(Sc3ccc4ccc[n+]([O-])c4c3)nc(N3CC[C@@H](N)C3)c2c1Cl [700,993] | 2 | <=0.5 | 16 µg/mL (≈ 36.3 µM) |
| CCc1[nH]c2nc(Sc3ccc4ccc[n+]([O-])c4c3)nc(N3CC4C(N)C4C3)c2c1Cl (stereo not drawn) [700,994] | <=0.5 | <=0.5 | 8 µg/mL (≈ 17.7 µM) |
| NC1CN(c2ncnc3cc(Sc4nc(N5CC[C@@H](N)C5)c5c(Cl)c(C6CC6)[nH]c5n4)ccc23)C1 [700,995] | >64 | >64 | 64 µg/mL (≈ 126 µM) |
| CCc1[nH]c2nc(Oc3cnc4c(c3)ncn4C)nc(Oc3cncc(C#N)c3)c2c1Br [700,996] | <=0.5 | <=0.5 | > 64 µg/mL |
| CCc1[nH]c2nc(Oc3ccc4nccnc4c3)nc(Oc3ccc4c(c3)ncn4C)c2c1Br [700,998] | 1 | <=0.5 | > 64 µg/mL |
| CCc1[nH]c2nc(Oc3cncc(C#N)c3)nc(N3CC[C@@H](NC(C)=O)C3)c2c1Cl [700,999] | 2 | 2 | > 64 µg/mL |
| CCc1[nH]c2nc(Oc3ccc4nccnc4c3)nc(N3CC[C@@H](N)C3)c2c1Cl [701,000] | 8 | 4 | 64 µg/mL (≈ 156 µM) |
| CCc1[nH]c2nc(Oc3ccc4nccnc4c3)nc(N3CC[C@@H](NC(C)=O)C3)c2c1Cl [701,001] | 8 | 4 | > 64 µg/mL |
| CCc1[nH]c2nc(Sc3ccc(/C=C/C(=O)O)c(F)c3)nc(N3CC[C@@H](N)C3)c2c1Cl [701,002] | >64 | 4 | > 64 µg/mL |
| CCc1[nH]c2nc(Sc3cnc4cccnc4c3)nc(N3CCNCCNCC3)c2c1Cl [701,003] | 32 | >64 | > 64 µg/mL |
| CCc1[nH]c2nc(Sc3cnc4cccnc4c3)nc(N3C[C@H](C(=O)NC4CNC4)[C@@H](N)C3)c2c1Cl [701,004] | >64 | 32 | > 64 µg/mL |
| CCc1[nH]c2nc(Sc3ccc4nccnc4c3)nc(N3CC[C@@H](N)C3)c2c1Cl [701,005] | <=0.5 | <=0.5 | 16 µg/mL (≈ 37.6 µM) |
| CCc1[nH]c2nc(Sc3ccc4nccnc4c3)nc(N3C[C@@H]4C(N)[C@@H]4C3)c2c1Cl (stereo partly drawn) [701,006] | <=0.5 | <=0.5 | > 64 µg/mL |
| CCc1[nH]c2nc(Oc3ccc4nccnc4c3)nc(Oc3ccc4ncn(C)c4c3)c2c1Cl [701,007] | 2 | <=0.5 | > 64 µg/mL |
